Source: patent US10231954B2, “Neurodegenerative therapies” (LYTIX BIOPHARMA AS, priority 2014, dated 2019)

Assays:
Type in all cases: biochemical
Details in all cases: 100 micromolar inhibitor concentration; 100 is no change
EPH-A4 = EPH-A4 (Homo sapiens, UniProt P54764); assay: Kinase profiling EPH-A4
Excerpt: (§1) Any value less that 25 is considered to be highly significant inhibition.

ZAP70 = molecular target: T1, ZAP70 (Homo sapiens, UniProt P43403); assay: Kinase profiling ZAP70
T1 sequence (P43403 1-619): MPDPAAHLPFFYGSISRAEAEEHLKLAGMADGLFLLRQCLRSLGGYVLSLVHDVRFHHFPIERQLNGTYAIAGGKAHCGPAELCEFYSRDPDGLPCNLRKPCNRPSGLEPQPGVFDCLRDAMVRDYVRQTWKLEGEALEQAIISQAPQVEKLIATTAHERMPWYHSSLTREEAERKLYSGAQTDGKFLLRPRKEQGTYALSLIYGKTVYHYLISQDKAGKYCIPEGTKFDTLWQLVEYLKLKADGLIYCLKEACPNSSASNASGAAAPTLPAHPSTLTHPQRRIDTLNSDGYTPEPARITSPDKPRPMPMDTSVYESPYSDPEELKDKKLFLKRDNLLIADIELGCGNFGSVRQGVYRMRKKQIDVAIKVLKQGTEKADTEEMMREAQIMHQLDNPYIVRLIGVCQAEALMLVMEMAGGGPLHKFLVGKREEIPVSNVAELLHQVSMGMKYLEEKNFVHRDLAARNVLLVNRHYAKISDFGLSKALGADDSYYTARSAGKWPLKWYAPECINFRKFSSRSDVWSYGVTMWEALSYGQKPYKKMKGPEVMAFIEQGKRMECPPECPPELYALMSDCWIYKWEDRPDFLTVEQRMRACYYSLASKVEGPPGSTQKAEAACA
Excerpt: as §1

MEKK1 = MEKK1 (Homo sapiens, UniProt Q13233); assay: Kinase profiling MEKK1
Chain of MEKK1 (Q13233 whole entry, species assumed): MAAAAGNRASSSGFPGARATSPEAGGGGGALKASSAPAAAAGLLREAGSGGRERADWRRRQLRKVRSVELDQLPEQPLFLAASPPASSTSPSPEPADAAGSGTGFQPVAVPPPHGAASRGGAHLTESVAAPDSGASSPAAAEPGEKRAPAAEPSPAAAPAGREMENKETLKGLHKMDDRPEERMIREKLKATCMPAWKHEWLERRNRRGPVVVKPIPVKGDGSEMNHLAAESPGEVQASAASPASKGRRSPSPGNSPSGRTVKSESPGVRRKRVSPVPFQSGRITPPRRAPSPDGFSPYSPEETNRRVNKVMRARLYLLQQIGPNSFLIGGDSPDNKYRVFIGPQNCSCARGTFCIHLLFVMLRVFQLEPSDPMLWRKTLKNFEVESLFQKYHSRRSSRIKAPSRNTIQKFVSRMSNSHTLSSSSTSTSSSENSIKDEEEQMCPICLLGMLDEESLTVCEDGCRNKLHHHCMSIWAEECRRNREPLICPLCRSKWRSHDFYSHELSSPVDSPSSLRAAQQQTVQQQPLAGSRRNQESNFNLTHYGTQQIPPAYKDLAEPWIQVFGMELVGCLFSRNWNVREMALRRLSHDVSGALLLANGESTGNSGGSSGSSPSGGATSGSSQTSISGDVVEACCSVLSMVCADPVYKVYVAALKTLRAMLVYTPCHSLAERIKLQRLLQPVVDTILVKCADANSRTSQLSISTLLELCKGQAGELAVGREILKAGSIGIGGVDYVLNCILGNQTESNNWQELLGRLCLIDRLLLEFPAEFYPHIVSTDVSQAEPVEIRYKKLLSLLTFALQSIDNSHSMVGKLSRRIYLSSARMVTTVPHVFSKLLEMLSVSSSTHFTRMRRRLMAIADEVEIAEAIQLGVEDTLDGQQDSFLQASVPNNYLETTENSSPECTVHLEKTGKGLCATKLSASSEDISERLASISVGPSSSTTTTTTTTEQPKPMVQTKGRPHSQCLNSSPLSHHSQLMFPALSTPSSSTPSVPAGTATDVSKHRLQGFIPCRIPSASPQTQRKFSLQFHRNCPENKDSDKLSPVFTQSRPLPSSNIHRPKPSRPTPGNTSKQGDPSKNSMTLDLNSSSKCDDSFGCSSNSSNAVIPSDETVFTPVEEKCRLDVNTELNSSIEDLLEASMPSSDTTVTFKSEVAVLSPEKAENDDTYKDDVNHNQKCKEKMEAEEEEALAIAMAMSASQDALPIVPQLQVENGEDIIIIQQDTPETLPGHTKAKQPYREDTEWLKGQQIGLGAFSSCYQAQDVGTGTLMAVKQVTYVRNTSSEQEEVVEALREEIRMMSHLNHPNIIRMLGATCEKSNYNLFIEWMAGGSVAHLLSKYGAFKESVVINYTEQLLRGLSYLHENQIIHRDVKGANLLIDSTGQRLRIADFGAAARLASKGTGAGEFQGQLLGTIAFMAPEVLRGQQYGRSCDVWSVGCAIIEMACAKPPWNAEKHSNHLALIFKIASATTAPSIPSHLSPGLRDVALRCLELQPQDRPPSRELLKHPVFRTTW
Excerpt: as §1

MARK3 = MARK3 (Homo sapiens, UniProt P27448); assay: Kinase profiling MARK3
Excerpt: as §1

ERK5 = ERK5 (Homo sapiens, UniProt Q13164); assay: Kinase profiling ERK5
Excerpt: as §1

SmMLCK = SmMLCK (Homo sapiens, UniProt Q15746); assay: Kinase profiling SmMLCK
HIPK3 = HIPK3 (Homo sapiens, UniProt Q9H422); assay: Kinase profiling HIPK3
Excerpt: as §1

DYRK1A = DYRK1A (Homo sapiens, UniProt Q13627); assay: DYRK 1A assay (kinase profiling)
Procedure: Assays are stopped by addition of 5 μl of 0.5 M (3%) orthophosphoric acid and then harvested onto P81 Unifilter plates with a wash buffer of 50 mM orthophosphoric acid.
as §1

TIE2 = TIE2 (Homo sapiens, UniProt Q02763); assay: Kinase profiling TIE2
Excerpt: as §1

MAPKAP-K3 = MAPKAP-K3 (Homo sapiens, UniProt Q16644); assay: Kinase profiling MAPKAP-K3
Chain of MAPKAP-K3 (Q16644 whole entry, species assumed): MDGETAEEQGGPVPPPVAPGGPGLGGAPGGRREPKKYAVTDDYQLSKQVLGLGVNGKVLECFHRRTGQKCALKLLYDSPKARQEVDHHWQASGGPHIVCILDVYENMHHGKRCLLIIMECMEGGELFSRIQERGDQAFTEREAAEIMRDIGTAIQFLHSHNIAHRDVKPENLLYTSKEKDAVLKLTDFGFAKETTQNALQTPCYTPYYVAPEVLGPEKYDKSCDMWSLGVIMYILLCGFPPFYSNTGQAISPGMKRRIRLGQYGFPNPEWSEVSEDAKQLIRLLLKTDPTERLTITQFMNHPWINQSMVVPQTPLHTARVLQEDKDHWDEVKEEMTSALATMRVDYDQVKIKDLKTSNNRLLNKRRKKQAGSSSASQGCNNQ
Excerpt: as §1

DAPK1 = DAPK1 (Homo sapiens, UniProt P53355); assay: Kinase profiling DAPK1
Chain of DAPK1 (P53355 whole entry, species assumed): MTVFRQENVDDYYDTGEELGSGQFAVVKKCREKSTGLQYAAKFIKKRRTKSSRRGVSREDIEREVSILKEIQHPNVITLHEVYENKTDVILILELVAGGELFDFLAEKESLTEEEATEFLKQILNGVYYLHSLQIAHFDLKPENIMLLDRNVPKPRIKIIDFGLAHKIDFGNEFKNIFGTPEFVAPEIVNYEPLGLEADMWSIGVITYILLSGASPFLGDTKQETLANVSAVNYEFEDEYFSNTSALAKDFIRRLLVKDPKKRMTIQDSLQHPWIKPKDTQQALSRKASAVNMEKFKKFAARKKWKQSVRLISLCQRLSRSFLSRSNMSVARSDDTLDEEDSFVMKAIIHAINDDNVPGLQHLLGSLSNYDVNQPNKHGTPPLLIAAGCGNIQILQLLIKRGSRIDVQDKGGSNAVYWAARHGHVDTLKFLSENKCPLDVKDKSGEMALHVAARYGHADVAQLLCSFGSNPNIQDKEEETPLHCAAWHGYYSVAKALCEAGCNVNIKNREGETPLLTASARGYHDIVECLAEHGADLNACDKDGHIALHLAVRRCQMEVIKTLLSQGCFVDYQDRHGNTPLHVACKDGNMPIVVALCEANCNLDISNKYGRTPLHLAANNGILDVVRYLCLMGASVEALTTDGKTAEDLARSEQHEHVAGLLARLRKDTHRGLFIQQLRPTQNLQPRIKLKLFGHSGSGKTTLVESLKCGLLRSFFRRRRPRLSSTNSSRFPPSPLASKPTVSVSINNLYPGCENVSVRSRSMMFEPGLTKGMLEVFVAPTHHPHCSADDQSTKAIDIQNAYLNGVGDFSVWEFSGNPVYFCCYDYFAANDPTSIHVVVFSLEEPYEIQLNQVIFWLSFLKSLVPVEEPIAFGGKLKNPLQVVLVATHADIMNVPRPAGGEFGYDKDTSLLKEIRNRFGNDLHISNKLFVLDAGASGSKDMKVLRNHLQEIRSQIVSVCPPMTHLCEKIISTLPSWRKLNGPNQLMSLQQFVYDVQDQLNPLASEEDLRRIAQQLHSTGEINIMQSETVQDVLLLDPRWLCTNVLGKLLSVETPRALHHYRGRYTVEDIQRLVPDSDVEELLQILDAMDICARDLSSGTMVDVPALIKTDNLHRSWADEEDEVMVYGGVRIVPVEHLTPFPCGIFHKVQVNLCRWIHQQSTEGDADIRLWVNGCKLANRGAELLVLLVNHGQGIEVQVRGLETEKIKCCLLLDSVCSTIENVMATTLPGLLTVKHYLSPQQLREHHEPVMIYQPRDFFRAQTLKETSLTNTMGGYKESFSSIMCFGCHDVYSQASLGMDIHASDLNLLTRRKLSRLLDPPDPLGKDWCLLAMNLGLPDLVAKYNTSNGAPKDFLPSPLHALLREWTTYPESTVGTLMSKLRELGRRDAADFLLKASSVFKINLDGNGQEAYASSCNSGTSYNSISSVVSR
Excerpt: as §1

Lck = Lck (Homo sapiens, UniProt P06239); assay: Kinase profiling Lck
Excerpt: as §1

p38a MAPK = p38a MAPK (Homo sapiens, UniProt Q16539); assay: Kinase profiling p38a MAPK
Chain of p38a MAPK (Q16539 whole entry): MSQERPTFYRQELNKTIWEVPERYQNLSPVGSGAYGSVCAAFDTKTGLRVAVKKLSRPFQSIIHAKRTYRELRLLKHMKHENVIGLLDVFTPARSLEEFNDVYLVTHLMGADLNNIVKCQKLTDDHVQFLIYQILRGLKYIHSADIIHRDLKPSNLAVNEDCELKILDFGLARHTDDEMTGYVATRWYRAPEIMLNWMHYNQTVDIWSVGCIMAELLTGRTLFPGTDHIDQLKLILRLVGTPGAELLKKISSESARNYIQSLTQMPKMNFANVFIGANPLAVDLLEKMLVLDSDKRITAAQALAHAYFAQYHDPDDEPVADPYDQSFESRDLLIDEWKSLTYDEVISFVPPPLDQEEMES
Excerpt: as §1

ULK1 = molecular target: T2, ULK1 (Homo sapiens, UniProt O75385); assay: Kinase profiling ULK1
T2 sequence (O75385 1-1050): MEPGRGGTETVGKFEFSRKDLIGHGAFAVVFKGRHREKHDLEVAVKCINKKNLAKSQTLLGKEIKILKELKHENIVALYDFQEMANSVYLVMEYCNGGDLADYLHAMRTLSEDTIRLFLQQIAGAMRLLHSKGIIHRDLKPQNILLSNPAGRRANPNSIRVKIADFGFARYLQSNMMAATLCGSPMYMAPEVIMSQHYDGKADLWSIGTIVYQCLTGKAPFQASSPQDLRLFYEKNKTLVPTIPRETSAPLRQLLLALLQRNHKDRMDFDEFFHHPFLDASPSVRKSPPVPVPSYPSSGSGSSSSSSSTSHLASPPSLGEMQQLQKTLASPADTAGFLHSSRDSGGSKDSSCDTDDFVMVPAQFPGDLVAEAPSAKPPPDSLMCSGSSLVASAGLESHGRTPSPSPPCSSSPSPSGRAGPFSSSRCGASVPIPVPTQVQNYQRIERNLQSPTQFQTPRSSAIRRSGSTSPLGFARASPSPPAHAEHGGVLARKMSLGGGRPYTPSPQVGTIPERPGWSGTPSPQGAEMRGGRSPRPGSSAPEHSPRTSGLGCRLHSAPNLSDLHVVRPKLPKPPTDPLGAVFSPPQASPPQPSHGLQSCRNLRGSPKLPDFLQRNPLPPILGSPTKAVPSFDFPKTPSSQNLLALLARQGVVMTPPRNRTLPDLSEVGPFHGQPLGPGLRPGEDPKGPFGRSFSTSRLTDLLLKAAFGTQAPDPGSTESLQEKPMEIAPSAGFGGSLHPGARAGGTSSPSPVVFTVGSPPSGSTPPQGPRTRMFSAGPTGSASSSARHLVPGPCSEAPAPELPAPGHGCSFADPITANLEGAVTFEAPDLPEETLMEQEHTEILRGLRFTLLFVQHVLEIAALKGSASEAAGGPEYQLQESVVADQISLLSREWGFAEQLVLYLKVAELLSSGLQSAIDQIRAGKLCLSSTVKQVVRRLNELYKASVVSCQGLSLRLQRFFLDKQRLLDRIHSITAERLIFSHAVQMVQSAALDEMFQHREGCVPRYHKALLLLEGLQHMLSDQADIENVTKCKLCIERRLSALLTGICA
Excerpt: as §1

Chain of EPH-A4 (P54764 20-986, species assumed): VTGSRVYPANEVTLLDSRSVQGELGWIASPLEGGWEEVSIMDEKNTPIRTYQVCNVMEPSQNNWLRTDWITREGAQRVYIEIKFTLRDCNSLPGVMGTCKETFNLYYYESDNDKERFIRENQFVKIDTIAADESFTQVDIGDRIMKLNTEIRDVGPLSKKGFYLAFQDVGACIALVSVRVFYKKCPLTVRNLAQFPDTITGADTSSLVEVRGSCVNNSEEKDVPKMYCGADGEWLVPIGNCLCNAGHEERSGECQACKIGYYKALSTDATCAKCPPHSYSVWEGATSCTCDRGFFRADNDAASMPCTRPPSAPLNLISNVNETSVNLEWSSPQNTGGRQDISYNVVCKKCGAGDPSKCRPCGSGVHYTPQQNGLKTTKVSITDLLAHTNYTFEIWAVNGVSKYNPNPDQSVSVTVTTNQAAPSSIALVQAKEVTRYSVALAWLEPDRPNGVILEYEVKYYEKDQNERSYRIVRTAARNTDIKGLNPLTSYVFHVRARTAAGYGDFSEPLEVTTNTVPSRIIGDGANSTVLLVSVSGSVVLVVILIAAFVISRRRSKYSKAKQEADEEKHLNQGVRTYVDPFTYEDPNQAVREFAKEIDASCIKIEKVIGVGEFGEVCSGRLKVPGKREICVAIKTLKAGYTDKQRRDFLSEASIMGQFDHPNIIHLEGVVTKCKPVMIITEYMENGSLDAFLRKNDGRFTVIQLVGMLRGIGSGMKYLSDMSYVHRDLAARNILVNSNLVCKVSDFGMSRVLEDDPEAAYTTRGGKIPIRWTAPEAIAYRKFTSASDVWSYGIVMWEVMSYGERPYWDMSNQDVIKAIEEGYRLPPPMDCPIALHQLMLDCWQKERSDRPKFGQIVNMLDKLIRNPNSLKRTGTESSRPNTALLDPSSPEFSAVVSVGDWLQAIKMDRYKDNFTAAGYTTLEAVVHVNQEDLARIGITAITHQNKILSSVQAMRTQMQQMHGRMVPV

In the case of `O=C(Nc1nc2cc(O)ccc2s1)c1cccnc1` [Compound 03-33], the “residual kinase activity, EPH-A4” value (EPH-A4) is reported as 92, the “residual kinase activity, ZAP70” value (ZAP70) is reported as 110 and the “residual kinase activity, MEKK1” value (MEKK1) is reported as 107. The “residual kinase activity, MARK3” value (MARK3) was 85, the “residual kinase activity, ERK5” value (ERK5) was 58 and the “residual kinase activity, SmMLCK” value (SmMLCK) was 52. The “residual kinase activity, HIPK3” value (HIPK3) was 102, the “residual kinase activity, DYRK1A” value (DYRK1A) was 29 and the “residual kinase activity, TIE2” value (TIE2) was 100. For the same compound, the “residual kinase activity, MAPKAP-K3” value (MAPKAP-K3) was 97, the “residual kinase activity, DAPK1” value (DAPK1) was 82 and the “residual kinase activity, Lck” value (Lck) was 105. For the same compound, the “residual kinase activity, p38a MAPK” value (p38a MAPK) was 105 and the “residual kinase activity, ULK1” value (ULK1) was 88.
